Results from PubChem BioAssay AID2060901 (Molecular Pharmacology Branch, DTP, NCI, 2025).

System: 422866-222-R5-J1-PDC complex spheroids viability
Experiment: Anticancer human tumor 422866-222-R5-J1-PDC patient-derived pancreatic adenocarcinoma cell line growth inhibition [RAS]
Conditions: for viability, T/C: stronger effect = lower value
Summary of the method: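 Tumour cells grown as complex spheroids with HUVEC endothelial cells and mesenchymal stem cells, treated with RAS pathway inhibitor combinations. Each agent spans half-log steps from near clinical Cmax, or 10 microM where Cmax is unknown.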
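Also: spheroids exposed to compounds for 7 days.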
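For viability, T/C in this document: 100% = DMSO vehicle control viability.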

In the case of `CC1(C)CCC(Nc2ncc(C(F)(F)F)c(-c3c[nH]c4c(P(C)(C)=O)c(C#N)ccc34)n2)CN1` (centres undefined) + CCn1c(-c2cccnc2C(C)OC)c2c3cc(ccc31)N1CCOC(CC(NC(=O)C(C(C)C)N(C)C(=O)C3(F)CCN(C(=O)C#CC(C)(C)N(C)C)CC3)C(=O)N3CCCC(N3)C(=O)OCC(C)(C)C2)C1, the IC50 (curve of first compound, second compound 0.000949 µM) is reported as < 0.949 nM, the IC50 (curve of first compound, second compound 0.003 µM) is reported as < 0.949 nM and the IC50 (curve of first compound, second compound 0.00949 µM) is reported as < 0.949 nM. The IC50 (curve of first compound, second compound 0.03 µM) was < 0.949 nM, the IC50 (curve of first compound, second compound 0.0949 µM) was < 0.949 nM and the IC50 (curve of first compound, second compound 0.3 µM) was < 0.949 nM. For the same molecule, the viability, T/C (second compound 0.000949 µM, first compound 0.000949 µM) was 27.9%, the viability, T/C (second compound 0.000949 µM, first compound 0.003 µM) was 27% and the viability, T/C (second compound 0.000949 µM, first compound 0.00949 µM) was 30.9%. For the same molecule, the viability, T/C (second compound 0.000949 µM, first compound 0.03 µM) was 31.1%, the viability, T/C (second compound 0.000949 µM, first compound 0.0949 µM) was 31% and the viability, T/C (second compound 0.000949 µM, first compound 0.3 µM) was 32.6%. The viability, T/C (second compound 0.003 µM, first compound 0.000949 µM) was 25.2%, the viability, T/C (second compound 0.003 µM, first compound 0.003 µM) was 27% and the viability, T/C (second compound 0.003 µM, first compound 0.00949 µM) was 27.6%. For the same molecule, the viability, T/C (second compound 0.003 µM, first compound 0.03 µM) was 24.8%, the viability, T/C (second compound 0.003 µM, first compound 0.0949 µM) was 28.6% and the viability, T/C (second compound 0.003 µM, first compound 0.3 µM) was 26.9%. The viability, T/C (second compound 0.00949 µM, first compound 0.000949 µM) was 24.1%, the viability, T/C (second compound 0.00949 µM, first compound 0.003 µM) was 24.4% and the viability, T/C (second compound 0.00949 µM, first compound 0.00949 µM) was 26.1%. For the same molecule, the viability, T/C (second compound 0.00949 µM, first compound 0.03 µM) was 26.2%, the viability, T/C (second compound 0.00949 µM, first compound 0.0949 µM) was 26.1% and the viability, T/C (second compound 0.00949 µM, first compound 0.3 µM) was 27.2%. The viability, T/C (second compound 0.03 µM, first compound 0.000949 µM) was 24.2%, the viability, T/C (second compound 0.03 µM, first compound 0.003 µM) was 25.8% and the viability, T/C (second compound 0.03 µM, first compound 0.00949 µM) was 24.2%. For the same molecule, the viability, T/C (second compound 0.03 µM, first compound 0.03 µM) was 26.3%, the viability, T/C (second compound 0.03 µM, first compound 0.0949 µM) was 28.2% and the viability, T/C (second compound 0.03 µM, first compound 0.3 µM) was 28.5%. For the same molecule, the viability, T/C (second compound 0.0949 µM, first compound 0.000949 µM) was 20.1%, the viability, T/C (second compound 0.0949 µM, first compound 0.003 µM) was 22.7% and the viability, T/C (second compound 0.0949 µM, first compound 0.00949 µM) was 25.4%. The viability, T/C (second compound 0.0949 µM, first compound 0.03 µM) was 23.6%, the viability, T/C (second compound 0.0949 µM, first compound 0.0949 µM) was 26.7% and the viability, T/C (second compound 0.0949 µM, first compound 0.3 µM) was 25.6%. It also gave a viability, T/C (second compound 0.3 µM, first compound 0.000949 µM) of 20%, a viability, T/C (second compound 0.3 µM, first compound 0.003 µM) of 22.8% and a viability, T/C (second compound 0.3 µM, first compound 0.00949 µM) of 24.2%. It also gave a viability, T/C (second compound 0.3 µM, first compound 0.03 µM) of 24.8%, a viability, T/C (second compound 0.3 µM, first compound 0.0949 µM) of 28.1% and a viability, T/C (second compound 0.3 µM, first compound 0.3 µM) of 24.6%.
`C=CC(=O)N1CCN(c2nc(OCC3CCCN3C)nc3c(F)c(-c4nc(N)cc(C)c4C(F)(F)F)c(Cl)cc23)C(C)C1` (centres undefined) was tested, and the viability, T/C (compound 0.00316 µM) was 28% [middle of 12 runs], the viability, T/C (compound 0.01 µM) was 27.2% [middle of 12 runs] and the viability, T/C (compound 0.0316 µM) was 24.1% [middle of 12 runs]. For the same molecule, the viability, T/C (compound 0.1 µM) was 24.8% [middle of 12 runs], the viability, T/C (compound 0.316 µM) was 26.7% [middle of 12 runs] and the viability, T/C (compound 1 µM) was 26.5% [middle of 12 runs]. The IC50 (compound alone, run of 06/10/2024) was < 3.16 nM and the IC50 (curve of compound) was < 3.16 nM.
For `CC1(C)CCC(Nc2ncc(C(F)(F)F)c(-c3c[nH]c4c(P(C)(C)=O)c(C#N)ccc34)n2)CN1` (centres undefined) + C=CC(=O)N1CCN(c2nc(OCC3CCCN3C)nc3c(F)c(-c4nc(N)cc(C)c4C(F)(F)F)c(Cl)cc23)C(C)C1, the IC50 (curve of first compound, second compound 0.00316 µM) was < 0.949 nM, the IC50 (curve of first compound, second compound 0.01 µM) was < 0.949 nM and the IC50 (curve of first compound, second compound 0.0316 µM) was < 0.949 nM. The IC50 (curve of first compound, second compound 0.1 µM) was < 0.949 nM, the IC50 (curve of first compound, second compound 0.316 µM) was < 0.949 nM and the IC50 (curve of first compound, second compound 1 µM) was < 0.949 nM. It also gave a viability, T/C (second compound 0.00316 µM, first compound 0.000949 µM) of 27.1%, a viability, T/C (second compound 0.00316 µM, first compound 0.003 µM) of 29.2% and a viability, T/C (second compound 0.00316 µM, first compound 0.00949 µM) of 25.8%. The viability, T/C (second compound 0.00316 µM, first compound 0.03 µM) was 25.1%, the viability, T/C (second compound 0.00316 µM, first compound 0.0949 µM) was 27.3% and the viability, T/C (second compound 0.00316 µM, first compound 0.3 µM) was 28.8%. For the same molecule, the viability, T/C (second compound 0.01 µM, first compound 0.000949 µM) was 23.1%, the viability, T/C (second compound 0.01 µM, first compound 0.003 µM) was 20.7% and the viability, T/C (second compound 0.01 µM, first compound 0.00949 µM) was 28.3%. For the same molecule, the viability, T/C (second compound 0.01 µM, first compound 0.03 µM) was 24.7%, the viability, T/C (second compound 0.01 µM, first compound 0.0949 µM) was 26.8% and the viability, T/C (second compound 0.01 µM, first compound 0.3 µM) was 28.3%. The viability, T/C (second compound 0.0316 µM, first compound 0.000949 µM) was 24.6%, the viability, T/C (second compound 0.0316 µM, first compound 0.003 µM) was 24.4% and the viability, T/C (second compound 0.0316 µM, first compound 0.00949 µM) was 22.2%. It also gave a viability, T/C (second compound 0.0316 µM, first compound 0.03 µM) of 23.3%, a viability, T/C (second compound 0.0316 µM, first compound 0.0949 µM) of 27.2% and a viability, T/C (second compound 0.0316 µM, first compound 0.3 µM) of 27.4%. It also gave a viability, T/C (second compound 0.1 µM, first compound 0.000949 µM) of 24.6%, a viability, T/C (second compound 0.1 µM, first compound 0.003 µM) of 22.3% and a viability, T/C (second compound 0.1 µM, first compound 0.00949 µM) of 25.5%. It also gave a viability, T/C (second compound 0.1 µM, first compound 0.03 µM) of 23.4%, a viability, T/C (second compound 0.1 µM, first compound 0.0949 µM) of 26.6% and a viability, T/C (second compound 0.1 µM, first compound 0.3 µM) of 27.6%. The viability, T/C (second compound 0.316 µM, first compound 0.000949 µM) was 20%, the viability, T/C (second compound 0.316 µM, first compound 0.003 µM) was 20.3% and the viability, T/C (second compound 0.316 µM, first compound 0.00949 µM) was 25.5%. It also gave a viability, T/C (second compound 0.316 µM, first compound 0.03 µM) of 24.6%, a viability, T/C (second compound 0.316 µM, first compound 0.0949 µM) of 25.8% and a viability, T/C (second compound 0.316 µM, first compound 0.3 µM) of 24.5%. For the same molecule, the viability, T/C (second compound 1 µM, first compound 0.000949 µM) was 22.1%, the viability, T/C (second compound 1 µM, first compound 0.003 µM) was 22.3% and the viability, T/C (second compound 1 µM, first compound 0.00949 µM) was 21.1%. It also gave a viability, T/C (second compound 1 µM, first compound 0.03 µM) of 24.2%, a viability, T/C (second compound 1 µM, first compound 0.0949 µM) of 30.4% and a viability, T/C (second compound 1 µM, first compound 0.3 µM) of 26.2%.
`CCn1c(-c2cccnc2C(C)OC)c2c3cc(ccc31)N1CCOC(CC(NC(=O)C(C(C)C)N(C)C(=O)C3(F)CCN(C(=O)C#CC(C)(C)N(C)C)CC3)C(=O)N3CCCC(N3)C(=O)OCC(C)(C)C2)C1` (centres undefined) was tested, and the viability, T/C (compound 0.000949 µM) was 25.9% [middle of 8 runs], the viability, T/C (compound 0.003 µM) was 23.3% [middle of 8 runs] and the viability, T/C (compound 0.00949 µM) was 21.9% [middle of 8 runs]. For the same molecule, the viability, T/C (compound 0.03 µM) was 22.1% [middle of 8 runs], the viability, T/C (compound 0.0949 µM) was 22.5% [middle of 8 runs] and the viability, T/C (compound 0.3 µM) was 20.2% [middle of 8 runs]. For the same molecule, the IC50 (compound alone, run of 05/20/2024) was < 0.949 nM.
